Measured values from ChEMBL document CHEMBL4431358, “Flavonoids and biphenylneolignans with anti-inflammatory activity from the stems of Millettia griffithii” (Bioorg Med Chem Lett, 2016).
Activity calls are given as the source filed them. No cut-off for these calls is given here.

Legend:
[1] = test system: RAW264.7; test: Cytotoxicity against mouse RAW264.7 cells assessed as reduction in cell viability at 100 uM after 72 hrs by MTT assay; type: cell-based; details: raw264.7, 72 h
[2] = test system: RAW264.7; test: Antiinflammatory activity in mouse RAW264.7 cells assessed as inhibition of LPS-induced nitric oxide production preincubated for 1 hr followed by LPS stimulation for 24 hrs by Griess method; type: functional, cell-based
[3] = test system: RAW264.7; test: Antiinflammatory activity in mouse RAW264.7 cells assessed as inhibition of LPS-induced nitric oxide production at 50 uM preincubated for 1 hr followed by LPS stimulation for 24 hrs by Griess method; type: functional
[4] = test system: RAW264.7; test: Inhibition iNOS mRNA expression levels in LPS-induced mouse RAW264.7 cells at 4 uM by RT-PCR analysis; type: functional, cell-based
[5] = test system: RAW264.7; test: Inhibition iNOS protein expression levels in LPS-induced mouse RAW264.7 cells at 4 uM by Western blot analysis; type: functional, cell-based
[6] = test system: RAW264.7; test: Inhibition iNOS protein expression levels in LPS-induced mouse RAW264.7 cells at 1 to 4 uM by Western blot analysis; type: functional, cell-based
[7] = test system: RAW264.7; test: Inhibition iNOS mRNA expression levels in LPS-induced mouse RAW264.7 cells at 1 to 4 uM by RT-PCR analysis; type: functional, cell-based
[8] = test system: RAW264.7; test: Inhibition COX2 protein expression levels in LPS-induced mouse RAW264.7 cells at 1 to 4 uM by Western blot analysis; type: functional, cell-based
[9] = test system: RAW264.7; test: Inhibition COX2 mRNA expression levels in LPS-induced mouse RAW264.7 cells at 1 to 4 uM by RT-PCR analysis; type: functional, cell-based

SMILES	Activity [1]	IC50 [2]	inhibition at 50 µM [3]	inhibition [4]	inhibition [5]	inhibition [6]	inhibition [7]	inhibition [8]	inhibition [9]
COc1cc(OC)c2c(=O)c(-c3cc(OC)c(OCC=C(C)C)cc3OC)coc2c1	Non-Toxic	35.7 µM	> 50%						
CC(=N)NCc1cccc(CN)c1				Active	Active				
COC1=CC(=O)C(CC=C(C)C)(CC=C(C)C)C(=O)/C1=C(N)\C=C\c1ccccc1	Non-Toxic	2.1 µM	> 50%			Active	Active	inactive	inactive
COC1=CC(=O)C(CC=C(C)C)(CC=C(C)C)C2=C1C(=O)C[C@@H](c1ccccc1)O2	Non-Toxic	20.4 µM	> 50%						
